Test results reported in ChEMBL document CHEMBL1212758 (Antimicrob Agents Chemother, 2010).

Legend:
[1] = tested on: Macacine alphaherpesvirus 1; assay: Antiviral activity against Macacine herpesvirus 1 isolate MC2 infected in african green monkey Vero cells by plaque reduction assay; type: functional, organism-based; details: Macacine alphaherpesvirus 1, isolate MC2, Vero
[2] = tested on: Macacine alphaherpesvirus 1; assay: Antiviral activity against Macacine herpesvirus 1 isolate MR8 infected in african green monkey Vero cells by plaque reduction assay; type: functional, organism-based; details: Macacine alphaherpesvirus 1, isolate MR8, Vero
[3] = tested on: Macacine alphaherpesvirus 1; assay: Antiviral activity against Macacine herpesvirus 1 isolate MR9 infected in african green monkey Vero cells by plaque reduction assay; type: functional, organism-based; details: Macacine alphaherpesvirus 1, isolate MR9, Vero
[4] = tested on: Macacine alphaherpesvirus 1; assay: Antiviral activity against Macacine herpesvirus 1 isolate MR10 infected in african green monkey Vero cells by plaque reduction assay; type: functional, organism-based; details: Macacine alphaherpesvirus 1, isolate MR10, Vero
[5] = tested on: Macacine alphaherpesvirus 1; assay: Antiviral activity against Macacine herpesvirus 1 isolate MR1 infected in african green monkey Vero cells by plaque reduction assay; type: functional, organism-based; details: Macacine alphaherpesvirus 1, isolate MR1, Vero
[6] = tested on: Macacine alphaherpesvirus 1; assay: Antiviral activity against Macacine herpesvirus 1 isolate MR11 infected in african green monkey Vero cells by plaque reduction assay; type: functional, organism-based; details: Macacine alphaherpesvirus 1, isolate MR11, Vero
[7] = tested on: Macacine alphaherpesvirus 1; assay: Antiviral activity against Macacine herpesvirus 1 isolate MR4 infected in african green monkey Vero cells by plaque reduction assay; type: functional, organism-based; details: Macacine alphaherpesvirus 1, isolate MR4, Vero
Human alphaherpesvirus 2 = assay: Antiviral activity against HSV2 infected in african green monkey Vero cells by plaque reduction assay; type: functional, organism-based; details: Human alphaherpesvirus 2, Vero
[8] = tested on: Macacine alphaherpesvirus 1; assay: Antiviral activity against Macacine herpesvirus 1 isolate MR2 infected in african green monkey Vero cells by plaque reduction assay; type: functional, organism-based; details: Macacine alphaherpesvirus 1, isolate MR2, Vero
[9] = tested on: Macacine alphaherpesvirus 1; assay: Antiviral activity against Macacine herpesvirus 1 isolate A2 infected in african green monkey Vero cells by plaque reduction assay; type: functional, organism-based; details: Macacine alphaherpesvirus 1, isolate A2, Vero
[10] = tested on: Macacine alphaherpesvirus 1; assay: Antiviral activity against Macacine herpesvirus 1 isolate A4 infected in african green monkey Vero cells by plaque reduction assay; type: functional, organism-based; details: Macacine alphaherpesvirus 1, isolate A4, Vero
[11] = tested on: Macacine alphaherpesvirus 1; assay: Antiviral activity against thymidine kinase deficient Macacine herpesvirus 1 isolate E2490 infected in african green monkey Vero cells by plaque reduction assay; type: functional, organism-based; details: Macacine alphaherpesvirus 1, isolate E2490, Vero
[12] = tested on: Macacine alphaherpesvirus 1; assay: Antiviral activity against Macacine herpesvirus 1 isolate A5 infected in african green monkey Vero cells by plaque reduction assay; type: functional, organism-based; details: Macacine alphaherpesvirus 1, isolate A5, Vero
[13] = tested on: Macacine alphaherpesvirus 1; assay: Antiviral activity against Macacine herpesvirus 1 isolate MJ2 infected in african green monkey Vero cells by plaque reduction assay; type: functional, organism-based; details: Macacine alphaherpesvirus 1, isolate MJ2, Vero
[14] = tested on: Macacine alphaherpesvirus 1; assay: Antiviral activity against Macacine herpesvirus 1 isolate MR5 infected in african green monkey Vero cells by plaque reduction assay; type: functional, organism-based; details: Macacine alphaherpesvirus 1, isolate MR5, Vero
[15] = tested on: Macacine alphaherpesvirus 1; assay: Antiviral activity against Macacine herpesvirus 1 isolate E2490 infected in african green monkey Vero cells by plaque reduction assay; type: functional, organism-based; details: Macacine alphaherpesvirus 1, isolate E2490, Vero
[16] = tested on: Macacine alphaherpesvirus 1; assay: Antiviral activity against Macacine herpesvirus 1 isolate MR6 infected in african green monkey Vero cells by plaque reduction assay; type: functional, organism-based; details: Macacine alphaherpesvirus 1, isolate MR6, Vero
Human alphaherpesvirus 1 = assay: Antiviral activity against HSV1 infected in african green monkey Vero cells by plaque reduction assay; type: functional, organism-based; details: Human alphaherpesvirus 1, Vero
[17] = tested on: Macacine alphaherpesvirus 1; assay: Antiviral activity against Macacine herpesvirus 1 isolate A1 infected in african green monkey Vero cells by plaque reduction assay; type: functional, organism-based; details: Macacine alphaherpesvirus 1, isolate A1, Vero
[18] = tested on: Macacine alphaherpesvirus 1; assay: Antiviral activity against Macacine herpesvirus 1 isolate MR7 infected in african green monkey Vero cells by plaque reduction assay; type: functional, organism-based; details: Macacine alphaherpesvirus 1, isolate MR7, Vero
[19] = tested on: Macacine alphaherpesvirus 1; assay: Antiviral activity against Macacine herpesvirus 1 isolate A3 infected in african green monkey Vero cells by plaque reduction assay; type: functional, organism-based; details: Macacine alphaherpesvirus 1, isolate A3, Vero
[20] = tested on: Macacine alphaherpesvirus 1; assay: Antiviral activity against Macacine herpesvirus 1 isolate MJ3 infected in african green monkey Vero cells by plaque reduction assay; type: functional, organism-based; details: Macacine alphaherpesvirus 1, isolate MJ3, Vero
[21] = tested on: Macacine alphaherpesvirus 1; assay: Antiviral activity against Macacine herpesvirus 1 isolate MJ1 infected in african green monkey Vero cells by plaque reduction assay; type: functional, organism-based; details: Macacine alphaherpesvirus 1, isolate MJ1, Vero
[22] = tested on: Macacine alphaherpesvirus 1; assay: Antiviral activity against Macacine herpesvirus 1 isolate MR3 infected in african green monkey Vero cells by plaque reduction assay; type: functional, organism-based; details: Macacine alphaherpesvirus 1, isolate MR3, Vero
[23] = tested on: Macacine alphaherpesvirus 1; assay: Antiviral activity against Macacine herpesvirus 1 isolate A6 infected in african green monkey Vero cells by plaque reduction assay; type: functional, organism-based; details: Macacine alphaherpesvirus 1, isolate A6, Vero
[24] = tested on: Macacine alphaherpesvirus 1; assay: Antiviral activity against Macacine herpesvirus 1 isolate MC1 infected in african green monkey Vero cells by plaque reduction assay; type: functional, organism-based; details: Macacine alphaherpesvirus 1, isolate MC1, Vero
[25] = tested on: Macacine alphaherpesvirus 1; assay: Antiviral activity against Macacine herpesvirus 1 isolate MP1 infected in african green monkey Vero cells by plaque reduction assay; type: functional, organism-based; details: Macacine alphaherpesvirus 1, isolate MP1, Vero
[26] = tested on: Macacine alphaherpesvirus 1; assay: Antiviral activity against Macacine herpesvirus 1 infected in rabbits assessed as survival after 5 months; type: functional

| SMILES | EC50 [1] [µM] | EC50 [2] [µM] | EC50 [3] [µM] | EC50 [4] [µM] | EC50 [5] [µM] | EC50 [6] [µM] | EC50 [7] [µM] | EC50 (Human alphaherpesvirus 2) [µM] | EC50 [8] [µM] | EC50 [9] [µM] | EC50 [10] [µM] | EC50 [12] [µM] | EC50 [13] [µM] | EC50 [14] [µM] | EC50 [15] [µM] | EC50 [16] [µM] | EC50 (Human alphaherpesvirus 1) [µM] | EC50 [17] [µM] | EC50 [18] [µM] | EC50 [19] [µM] | other results |
| --- | --- | --- | --- | --- | --- | --- | --- | --- | --- | --- | --- | --- | --- | --- | --- | --- | --- | --- | --- | --- | --- |
| Nc1ncnc2c1ncn2[C@@H]1O[C@H](CO)[C@@H](O)[C@@H]1O [VIDARABINE] | 26.5 | 26.5 | 26.5 | 26.5 | 26.5 | 26.5 | 26.5 | 26.5 | 26.5 | 26.5 | 26.5 | 26.5 | 26.5 | 26.5 | 26.5 | 26.5 | 26.5 | 26.5 | 26.5 | 26.5 | EC50 [11]: 37.8 µM; EC50 [20]: 26.5 µM; EC50 [21]: 26.5 µM; EC50 [22]: 26.5 µM; EC50 [23]: 26.5 µM; EC50 [24]: 26.5 µM; EC50 [25]: 26.5 µM |
| Nc1nc2c(ncn2COCCO)c(=O)[nH]1 [ACYCLOVIR] | 19.3 | 19.3 | 19.3 | 19.3 | 19.3 | 19.3 | 19.3 | 19.3 | 19.3 | 19.3 | 19.3 | 19.3 | 19.3 | 19.3 | 19.3 | 19.3 | 19.3 | 19.3 | 19.3 | 19.3 | Activity [26]: 33%; EC50 [20]: 19.3 µM; EC50 [21]: 19.3 µM; EC50 [22]: 19.3 µM; EC50 [23]: 19.3 µM; EC50 [24]: 19.3 µM; EC50 [25]: 19.3 µM |
